Reference: paper PMC5359555, “Mechanistic and structural basis of bioengineered bovine Cathelicidin-5 with optimized therapeutic activity” (Scientific Reports, 2017)
Where a SMILES comes first, the peptide text is derived from it.

What was measured:
E. coli BL21 cells = experiment: Flow cytometry propidium iodide influx, E. coli BL21; format: cell-based, Escherichia coli BL21; settings: E. coli BL21, at peptide MIC; 30 min peptide, 10 μg ml^−1 PI
Method: The effect of peptides on the cell-membrane integrity of E. coli BL21 and DH5α and lymphoma cells was studied using the flow cytometer analysis as described elsewhere. The cells were cultured and washed three times using PBS buffer and incubated for 30 minutes with peptides at different concentration. The incubated lymphoma cells were further processed referring to the annexin V-FITC apoptosis kit. Peptide treated and untreated cells (E. coli/lymphoma) were stained with 10 μg ml^−1 propidium iodide (PI) and incubated for additional 30 min. The incubated cells were washed using PBS to remove unbound dye and flow cytometry analysis was carried out using the FACSCalibur and analyzed by CellQuest Pro Version 5.2.1 software (BD Biosciences, NJ, USA).

E. coli BL21 strain = experiment: Transmission electron microscopy, E. coli BL21; format: cell-based, Escherichia coli BL21; settings: E. coli BL21, 2 μM, 1 hour 37 °C
Method: (§1) E. coli DH5α and BL21 strains were subjected to TEM analysis. E. coli strains were cultured at 37°C in LB broth to mid-log phase and harvested by centrifugation at 5000 g for 5 minutes. The cell pellets were re-suspended in fresh LB media with an OD600 = 0.18. A peptide (Syn1) solution at a concentration of 2 μM (MIC) was added to E. coli DH5α and BL21 strains and the samples were incubated at 37°C for 1 hour. The culture was centrifuged at 5000 g for 5 minutes and the cell pellets were collected. The cell pellets were washed twice and re-suspended in 1 mL fixation buffer that contains 2% formaldehyde, 2.5% glutaryldehide in 0.1 M phosphate buffer (pH = 7.4). The fixed bacterial cells were observed under the microscope, JEM-1011 (JEOL, Tokyo, Japan).

E. coli DH5α strain = experiment: Transmission electron microscopy, E. coli DH5α; format: cell-based, Escherichia coli DH5α; settings: 4 μM
Method: as §1, with “A peptide (Syn1) solution at a concentration of 2 μM (MIC) was added to E. coli DH5α and BL21 strains and the samples were incubated at 37°C for 1 hour.” left out

RBCs = experiment: Hemolytic assay (hemoglobin release); format: cell-based; settings: 30 μM; RBCs hematocrit ~5%, 1 h 37 °C, absorbance 540 nm, 100% = 2% Triton X-100
Method: Plasmodium falciparum strain 3D7 was cultured in RPMI-1640 supplemented with 25 mg/l L-Glutamine; HEPES, NaHCO3; 50 mg/l Hypoxanthin; Gentamicien; 10% human serum; and RBCs at 3% hematocrit in an atmosphere of 5% CO2, 5% O2, and 90% N2 at 37°C as previously described. The Plasmodium lactate dehydrogenase (pLDH) assay was performed to measure the parasitic growth inhibition as described elsewhere[49] with BMAP-28 and its analogues treatment. In brief, malstat reagent was added to a 96-well plate (100 μL in each well). A Plasmodium infected RBC mixture of 20 μL in each well was mixed thoroughly using a plate shaker. And then 10 μL of each 1 mg/ml diaphorase and Nitroblue tetrozolium (NBT) were added to each well. The solution in the 96-well plate was mixed properly until a brown color appears and the absorbance was measured at 650 nm under a plate reader (PowerWaveHT, BioTek Instruments, USA). The hemolytic assay was carried out as described earlier. Briefly, RBCs prepared from fresh blood (Hematocrit ~5%) were incubated for 1 h at 37 °C after addition of test peptides. Relative hemoglobin concentration in supernatants after centrifugation at 2000× g for 5 min was monitored by measuring the absorbance at 540 nm by the plate reader (PowerWaveHT, BioTek Instruments, USA). As positive control, 100% hemolysis was taken from samples in which 2% Triton X-100 was added.

B16-F1 melanoma cells = experiment: MTT cell-viability assay, B16-F1 melanoma; format: cell-based, mouse
Method: The T-cell lymphoma (Jurkat) and B-cell lymphoma (Ramos) were cultured using RPMI-1640 medium supplemented with 10% fetal calf serum (FCS), 100 U ml^−1 penicillin and 100 μg ml^−1 streptomycin. An initial cell densities of 5 × 10^3 cells/well was uniformly maintained in a 96 well plate. The B16-F1 melanoma cells were grown in DMEM medium containing 10% FCS, 100 U ml^−1 penicillin and 100 μg ml^−1 streptomycin and 55 μM 2-mercaptoethanol. The cells were trypsinized and plated in a 96-well plate at a density of 5 × 10^3 cells/well. The cells were grown overnight at 37 °C using a 5% CO2 incubator. The cells were treated with different peptide concentration followed by cell proliferation assay. The MTT assay kit (Cayman chemicals, USA) was used to measure the cell viability at a peptide concentration varying from 2 to 15 μM (in triplicate). Fresh culture medium and cells in medium without peptide were considered as negative and positive controls for viability assay and was monitored at 24, 48 and 72 h. The Cayman MTT cell proliferation assay protocol was followed, and the absorbance were recorded at 570 nm using a microplate reader (PowerWaveHT, BioTek Instruments, USA).

[1] = test system: osteoclasts (RANKL-induced from MDMs); experiment: RANKL-induced osteoclastogenesis; format: cell-based, mouse; settings: 50 ng/ml RANKL plus M-CSF, TRAP staining after 4 days
Method: (§2) The C57BL/6 mice (8 weeks old male) were generated and maintained in a pathogen-free environment as described elsewhere. All animal experiments were carried out under approval from the Animal Research Committee of the Research Institute for Microbial Diseases (Osaka University, Osaka, Japan). All experiments were performed in accordance with relevant guidelines and regulations of Osaka University, Japan. The stromal cell-free osteoclast culture was performed using M-CSF-derived macrophage (MDMs) precursors. The bone marrow cells were flushed from femurs or tibias and cultured for 6 h in α-MEM supplemented with 10% FCS. The non-adherent cells were collected and plated in a 96-well plate at a density of 2 × 10^3 cells/well with 25 ng/ml M-CSF (PeproTech, Rocky Hill, NJ). The cell cultures were rinsed with PBS after 3 days incubation, and the adherent cells were used as MDMs. The MDMs were induced to differentiate into osteoclasts in the presence of 50 ng/ml RANKL plus M-CSF. The cells were treated with different peptide concentration to investigate the effect of peptides on the osteoclastogenesis process. After 4 days, TRAP staining was performed and TRAP positive multinucleated cell numbers (>3 nuclei) were counted.

B16-F1 melanoma tumor = experiment: In vivo B16-F1 melanoma mouse model; settings: C57BL/6 mice n = 6, subcutaneous
Method: as §2, with “The MDMs were induced to differentiate into osteoclasts in the presence of 50 ng/ml RANKL plus M-CSF. The cells were treated with different peptide concentration to investigate the effect of peptides on the osteoclastogenesis process.” left out
Healthy C57BL/6 mice (n = 6) were administered with 30 μM Syn1 peptide mixed with 1 × 10^6 B16-F1 melanoma cells in 0.1 ml of saline via subcutaneous injections. […] The growth size of tumors were monitored in every two days and the tumor volume was measured by a dial-caliper on day 14 and 20 using the formula volume = width^2 × length × 0.52.

Question: Which results are given for `CC[C@H](C)[C@H](NC(=O)[C@H](CCCCN)NC(=O)[C@H](CCCNC(=N)N)NC(=O)CNC(=O)[C@H](Cc1ccccc1)NC(=O)[C@H](CO)NC(=O)[C@H](CCCNC(=N)N)NC(=O)[C@H](Cc1ccccc1)NC(=O)CNC(=O)CN)C(=O)N[C@@H](Cc1ccccc1)C(=O)N[C@@H](CCCNC(=N)N)C(=O)N[C@@H](C)C(=O)N[C@@H](Cc1c[nH]c2ccccc12)C(=O)N[C@@H](CCCCN)C(=O)N[C@@H](CCCCN)C(=O)N[C@@H](Cc1ccc(O)cc1)C(=O)NCC(N)=O` [Syn1] (H-GGFRSFGRKIFRAWKKYG-NH2; N-terminus assumed)?
Answer: PI influx (E. coli BL21 cells): ~ 100%; TEM observation (in words) (E. coli BL21 strain): membrane disruption and cell lysis; TEM: membrane abnormalities or disruption (in words) (E. coli DH5α strain): not observed; Hemoglobin release (%) / hemolysis (RBCs): 7.2%; concentration found to be active (B16-F1 melanoma cells): ~ 30 μM; anticancer activity (in words) (B16-F1 melanoma cells; 10 μM): fairly low anticancer activity; activity in RANKL-induced osteoclastogenesis (in words) ([1]; 3 μM): significant activity; activity in RANKL-induced osteoclastogenesis (in words) ([1]; 10 μM): complete abolition; tumor formation (in words) (B16-F1 melanoma tumor; 30 μM Syn1 mixed with 1 × 10^6 B16-F1 cells in 0.1 ml saline, day 14 and 20): no tumor formation; survival (in words) (B16-F1 melanoma tumor; 30 μM Syn1 mixed with 1 × 10^6 B16-F1 cells): alive
